In paper PMC8954816, “Quantitative Analysis of Daporinad (FK866) and Its In Vitro and In Vivo Metabolite Identification Using Liquid Chromatography-Quadrupole-Time-of-Flight Mass Spectrometry” (Molecules, 2022):
Where two headings read alike, the source gives them in different places.

What was measured:
[1] = Intravenous pharmacokinetic study of Daporinad in mice (plasma, LC-qTOF-MS, NCA); format: in vivo, mouse; settings: for AUC(0-t) / Cmax / clearance / half-life / Vd: male, ICR; for AUC(0-t) / Cmax / clearance / half-life: n = 3; for Vd: n = 3, read-out: Vss
Procedure: The developed LC-qTOF-MS method was successfully applied to obtain the PK parameters of Daporinad in mouse plasma following IV administration at the doses of 5, 10 and 30 mg/kg. The concentrations of most PK samples were within the qualified calibration curve except some PK samples at early time point samples. Therefore, early time point PK samples were diluted appropriately with blank mouse plasma to ensure that every sample concentration was within the calibration curve range. The PK parameters were calculated with the non-compartmental analysis (NCA) using WinNonlin (version 8.0.0) and the results are summarized in Table 4.
An aliquot of 4 µL of STD or QC working solutions were spiked into 20 µL of blank mouse plasma, and 4 µL of make-up DMSO was spiked into 20 µL of the mouse PK sample to make it the same matrix condition as the STD and QC sample. Then, 100 µL of ISTD solution was added to STD, QC and the study sample. Then, the samples were vortexed for about 1 min and centrifuged at 10,000× g rpm for 5 min. After centrifugation, 75 µL of supernatant was taken and mixed with 75 µL of DW. After that, the aliquot was transferred to an LC vial for the LC-qTOF-MS analysis.
Male ICR mice (30 ± 3 g) were purchased from the Samtako biokorea co. (Pocheon, Gyeonggi, Korea) and housed in groups of 6~8 per cage and given standard rodent chow. The animals were fasted overnight with free access to water for at least 12 h before administration. Mice were distributed into three different dosing groups (n = 3 for each dosing group; 5, 10 and 30 mg/kg). The blood sampling time points were 2, 10, 30, 60, 120, 240 and 420 min after administration. The sampling blood samples were centrifuged at 12,000× g rpm for 5 min and the plasma was transferred to another tube and then stored at −20 °C until further analysis. All experiment performed on the mouse were approved by abiding the animal care protocol (no. CNU-01104) from Chungnam National University. The procedures were abided by the guidelines established by the Association for Assessment and Accreditation of Laboratory Animal Care International (AAALAC International).
Data acquisition and LC-qTOF-MS operation was conducted using Analyst® TF Version 1.6 (Sciex, Foster City, CA, USA). MultiQuant® Version 2.1.1 (Sciex, Foster City, CA, USA) was used for the peak integration for Daporinad quantification. PeakView® Version 2.2 (Sciex, Foster City, CA, USA) and MetabolitePilot™ Version 2.0.2 (Sciex, Foster City, CA, USA) were used for the structural elucidation of Daporinad metabolites. The descriptive statistics for the qualification studies were calculated with Excel 2015 (Microsoft). Pharmacokinetic parameters were calculated in a non-compartmental analysis using WinNonlin® version 8.0.0 (Certara, Princeton, NJ, USA).

[2] = Preliminary stability tests for Daporinad in mouse plasma; format: in vitro ADME; settings: 14 days, −20 °C, n = 3
[3] = as above; format: in vitro ADME; settings: for Freeze–thaw stability, mean accuracy: 3 cycles; for Freeze–thaw stability, mean accuracy / Short-term stability, mean accuracy: n = 3; for Short-term stability, mean accuracy: 4 h
Procedure: Daporinad was stable in mouse plasma for […] three cycles of freeze–thawing and also stable during at least 2 weeks at −80 °C storage condition.
Three levels of QC were used for the short-term, freeze–thaw and long-term stability assessments. The short-term stability assessment was carried out at RT for 4 h, and the long-term stability samples were kept frozen at −80 °C for 2 weeks. The freeze–thaw stability was evaluated over three cycles of freezing (−80 °C) and thawing (RT). The stability test results were evaluated by confirming that the mean accuracy (%) of the nominal value which should be within ±25% acceptance criteria.

[4] = mouse plasma, dose range 10 to 30 mg/kg

For `O=C(/C=C/c1cccnc1)NCCCCC1CCN(C(=O)c2ccccc2)CC1` [Daporinad], which AUC(0-t) ([1]; mouse plasma, 5 mg/kg) is on record?
Its AUC(0-t) is 2.86 µg·h/mL.

What about the Cmax ([1]; mouse plasma, 5 mg/kg) of the same compound?
The Cmax was 5.48 ± 0.427 µg/mL.

What about the clearance ([1]; mouse plasma, 5 mg/kg) of the same compound?
Its clearance is 1.76 ± 0.222 L/h/kg.

And the half-life ([1]; mouse plasma, 5 mg/kg)?
Its half-life is 52.9 ± 7.3 min.

What about the Vd ([1]; mouse plasma, 5 mg/kg) of the same compound?
The Vd was 0.897 ± 0.199 L/kg.

And the AUC(0-t) ([1]; mouse plasma, 10 mg/kg)?
Its AUC(0-t) is 5.95 µg·h/mL.

And the Cmax ([1]; mouse plasma, 10 mg/kg)?
Its Cmax is 14.9 µg/mL.

And the clearance ([1]; mouse plasma, 10 mg/kg)?
Its clearance is 1.69 ± 0.167 L/h/kg.

And the half-life ([1]; mouse plasma, 10 mg/kg)?
The half-life was 50.5 ± 4.88 min.

And the Vd ([1]; mouse plasma, 10 mg/kg)?
Its Vd is 0.647 ± 0.0915 L/kg.

And the AUC(0-t) ([1]; mouse plasma, 30 mg/kg)?
The AUC(0-t) was 29.4 µg·h/mL.

And the Cmax ([1]; mouse plasma, 30 mg/kg)?
Its Cmax is 48.1 µg/mL.

And the clearance ([1]; mouse plasma, 30 mg/kg)?
Its clearance is 1.07 ± 0.307 L/h/kg.

What about the half-life ([1]; mouse plasma, 30 mg/kg) of the same compound?
Its half-life is 40.8 ± 0.95 min.

And the Vd ([1]; mouse plasma, 30 mg/kg)?
The Vd was 0.536 ± 0.11 L/kg.

What about the “Dose proportionality of Cmax and AUC” value ([1]; mouse plasma, dose range 5 to 10 mg/kg) of the same compound?
The value was “dose proportional”.

What about the “Dose proportionality of AUC” value [1, 4] of the same compound?
The value was “supra-proportional”.

What about the “Dose proportionality of Cmax” value [1, 4] of the same compound?
Its value is “dose-proportional”.

What about the Clearance classification ([1]; mouse, 5 to 30 mg/kg) of the same compound?
Its Clearance classification is “low to moderate clearance”.

What about the “Long-term stability, mean accuracy” value ([2]; High QC (1820 ng/mL)) of the same compound?
Its value is 91.4%.

And the “Long-term stability, mean accuracy” value ([2]; Low QC (15.0 ng/mL))?
Its value is 111%.

And the “Long-term stability, mean accuracy” value ([2]; Medium QC (165 ng/mL))?
The value was 84.5%.

And the “Freeze–thaw stability, mean accuracy” value ([3]; mouse plasma, −80 °C, High QC (1820 ng/mL))?
The value was 116%.

And the “Freeze–thaw stability, mean accuracy” value ([3]; mouse plasma, −80 °C, Low QC (15.0 ng/mL))?
Its value is 105%.

What about the “Freeze–thaw stability, mean accuracy” value ([3]; mouse plasma, −80 °C, Medium QC (165 ng/mL)) of the same compound?
The value was 117%.

And the “Short-term stability, mean accuracy” value ([3]; mouse plasma, RT, High QC (1820 ng/mL))?
The value was 104%.

And the “Short-term stability, mean accuracy” value ([3]; mouse plasma, RT, Low QC (15.0 ng/mL))?
The value was 103%.

What about the “Short-term stability, mean accuracy” value ([3]; mouse plasma, RT, Medium QC (165 ng/mL)) of the same compound?
The value was 102%.

What about the “Time stable in mouse plasma at room temperature” value ([3]; mouse plasma, RT) of the same compound?
Its value is “at least 4 h”.

What about the “Time stable in mouse plasma at storage condition” value ([3]; mouse plasma, −80 °C storage) of the same compound?
The value was “at least 2 weeks”.

What about the “Freeze–thaw stability in mouse plasma” value ([3]; −80 °C, three cycles of freeze–thawing) of the same compound?
Its value is “stable”.
